Measured values reported in paper PMC5936891, “A focused library synthesis and cytotoxicity of quinones derived from the natural product bolinaquinone” (Royal Society Open Science, 2018).
“Also recorded” adds a separate entry of the source. Where two headings read alike, the source gives them in different places.

Key:
[1] = test system: HCT-116 colon carcinoma cells; details: cited from earlier work
[2] = test system: A2780 (ovarian carcinoma); assay: MTT in vitro growth inhibition assay, A2780; type: cell-based; details: Homo sapiens; for inhibition at 25 µM: 25 µM of drug, 72 h, read-out: Percentage of Cell Growth Inhibition A2780; for GI50: 72 h drug exposure
U87 (glioblastoma) = assay: MTT in vitro growth inhibition assay, U87; type: cell-based; details: for inhibition at 25 µM: 25 µM of drug, 72 h, read-out: Percentage of Cell Growth Inhibition U87; for GI50: 72 h drug exposure
[3] = test system: MCF10A (normal breast cell line); assay: MTT in vitro growth inhibition assay, MCF10A; type: cell-based; details: Homo sapiens, MCF-10A; for inhibition at 25 µM: 25 µM of drug, 72 h, read-out: Percentage of Cell Growth Inhibition MCF10A; for GI50: normal breast cell line, 72 h drug exposure
[4] = test system: panel of 11 cancer cell lines and one normal cell line; assay: Cytotoxicity across the whole cell line panel (MTT); type: cell-based; details: for activity at the initial screening concentration (to proceed to GI50 determination): 25 µM single dose
Text: With the desired bolinaquinone analogues 12–43 in hand, we examined their cytotoxicity against a panel of 11 tumour cell lines: HT29 (colon carcinoma), U87 and SJ-G2 (glioblastoma), MCF-7 (breast carcinoma), A2780 (ovarian carcinoma), H460 (lung carcinoma), A431 (skin carcinoma), Du145 (prostate carcinoma), BE2-C (neuroblastoma), MIA (pancreatic carcinoma), SMA (spontaneous murine astrocytoma) and a normal breast cell line (MCF10A). The inclusion of the MCF-10A cell line allowed a determination of a crude measure of relative toxicity while noting that the ultimate arbiter of toxicity requires in vivo evaluation. All analogues were initially screened at a 25 µM drug concentration.
Stock solutions were prepared as follows and stored at −20°C: drugs were stored as 40 mM solutions in DMSO. All cell lines were cultured in a humidified atmosphere 5% CO2 at 37°C. The cancer cell lines were maintained in Dulbecco's modified Eagle's medium (DMEM) (Trace Biosciences, Australia) supplemented with 10% fetal bovine serum, 10 mM sodium bicarbonate, penicillin (100 IU ml^−1), streptomycin (100 µg ml^−1) and glutamine (4 mM). The non-cancer MCF10A cell line was cultured in DMEM:F12 (1 : 1) cell culture media, 5% heat-inactivated horse serum, supplemented with penicillin (50 IU ml^−1), streptomycin (50 µg ml^−1), 20 mM Hepes, L-glutamine (2 mM), epidermal growth factor (20 ng ml^−1), hydrocortisone (500 ng ml^−1), cholera toxin (100 ng ml^−1) and insulin (10 ug ml^−1).
Cells in logarithmic growth were transferred to 96-well plates. Cytotoxicity was determined by plating cells in duplicate in 100 µl medium at a density of 2500–4000 cells per well. On day 0 (24 h after plating), when the cells were in logarithmic growth, 100 μl of medium with or without the test agent was added to each well. After 72 h, drug exposure growth inhibitory effects were evaluated using the MTT (3-[4,5-dimethylthiazol-2-yl]-2,5-diphenyl-tetrazolium bromide) assay and the absorbance read at 540 nm. Percentage growth inhibition was determined at a fixed drug concentration of 25 µM. A value of 100% is indicative of complete cell growth inhibition. Those analogues showing appreciable percentage growth inhibition underwent further dose–response analysis allowing for the calculation of a GI50 value. This value is the drug concentration at which cell growth is 50% inhibited based on the difference between the optical density values on day 0 and those at the end of drug exposure.

H460 (lung carcinoma) = assay: MTT in vitro growth inhibition assay, H460; type: cell-based; details: Homo sapiens; for inhibition at 25 µM: NCI-H460, 25 µM of drug, 72 h, read-out: Percentage of Cell Growth Inhibition H460; for GI50: NCI-H460, 72 h drug exposure
[5] = test system: MIA (pancreatic carcinoma); assay: MTT in vitro growth inhibition assay, MIA; type: cell-based; details: for inhibition at 25 µM: 25 µM of drug, 72 h, read-out: Percentage of Cell Growth Inhibition MIA; for GI50: 72 h drug exposure
SJ-G2 (glioblastoma) = assay: MTT in vitro growth inhibition assay, SJ-G2; type: cell-based; details: for inhibition at 25 µM: 25 µM of drug, 72 h, read-out: Percentage of Cell Growth Inhibition SJ-G2; for GI50: 72 h drug exposure
[6] = test system: Du145 (prostate carcinoma); assay: MTT in vitro growth inhibition assay, Du145; type: cell-based; details: Homo sapiens; for inhibition at 25 µM: DU-145, 25 µM of drug, 72 h, read-out: Percentage of Cell Growth Inhibition Du145; for GI50: DU-145, 72 h, 72 h drug exposure
BE2-C (neuroblastoma) = assay: MTT in vitro growth inhibition assay, BE2-C; type: cell-based; details: Homo sapiens, BE(2)-C, 72 h; for inhibition at 25 µM: 25 µM of drug, read-out: Percentage of Cell Growth Inhibition BE2-C; for GI50: 72 h drug exposure
[7] = test system: SMA (spontaneous murine astrocytoma); assay: MTT in vitro growth inhibition assay, SMA; type: cell-based; details: Mus musculus; for inhibition at 25 µM: 25 µM of drug, 72 h, read-out: Percentage of Cell Growth Inhibition SMA; for GI50: 72 h drug exposure
A431 (skin carcinoma) = assay: MTT in vitro growth inhibition assay, A431; type: cell-based; details: Homo sapiens; for inhibition at 25 µM: A-431, 25 µM of drug, 72 h, read-out: Percentage of Cell Growth Inhibition A431; for GI50: A-431, 72 h, 72 h drug exposure
MCF-7 (breast carcinoma) = assay: MTT in vitro growth inhibition assay, MCF-7; type: cell-based; details: Homo sapiens; for inhibition at 25 µM: MCF7, 25 µM of drug, 72 h, read-out: Percentage of Cell Growth Inhibition MCF-7; for GI50: MCF7, 72 h drug exposure
HT29 (colon carcinoma) = assay: MTT in vitro growth inhibition assay, HT29; type: cell-based; details: Homo sapiens; for inhibition at 25 µM: HT-29, 25 µM of drug, 72 h, read-out: Percentage of Cell Growth Inhibition HT29; for GI50: HT-29, 72 h drug exposure
[8] = average over the cell line panel, read-out: average GI50
[9] = span over the cell line panel, read-out: GI50 values across the cell lines examined (range)

SMILES	inhibition at 25 µM [2]	GI50 [2]	inhibition at 25 µM (U87 (glioblastoma))	GI50 (U87 (glioblastoma))	inhibition at 25 µM [3]	GI50 [3]	GI50 [4, 8]	inhibition at 25 µM (H460 (lung carcinoma))	GI50 (H460 (lung carcinoma))	inhibition at 25 µM [5]	GI50 [5]	inhibition at 25 µM (SJ-G2 (glioblastoma))	inhibition at 25 µM [6]	melting point	inhibition at 25 µM (BE2-C (neuroblastoma))	inhibition at 25 µM [7]	inhibition at 25 µM (A431 (skin carcinoma))	inhibition at 25 µM (MCF-7 (breast carcinoma))	inhibition at 25 µM (HT29 (colon carcinoma))	activity at the initial screening concentration (to proceed to GI50 determination) [4]	other results
COC1=CC(=O)C(O)=C(C[C@@]2(C)CC[C@]3(C)C(C)=CCC[C@H]3[C@H]2C)C1=O [compound 1, bolinaquinone]	–	–	–	–	–	–	–	–	–	–	–	–	–	–	–	–	–	–	–	–	GI50 ([1]; 50% growth inhibition): 5.3 µM
COC1=CC(=O)C(OC)=C(c2ccc(OC)c(OC)c2)C1=O [compound 23, 2,5-Dimethoxy-3-(3,4-dimethoxyphenyl)cyclohexa-2,5-diene-1,4-dione]	> 100%	3.8 ± 0.75 µM	> 100%	9.5 ± 1.2 µM	62 ± 4%	19 ± 1.3 µM	10.2 µM	77 ± 4%	15 ± 2 µM	> 100%	4.8 ± 0.91 µM	> 100%	81 ± 4%	135 to 137 °C	> 100%	> 100%	95 ± 4%	> 100%	> 100%	–	cytotoxicity spectrum across the panel [4]: broad-spectrum active; GI50 [4, 9]: 3 to 15 µM; GI50 (SJ-G2 (glioblastoma)): 12 ± 0.67 µM; GI50 [6]: 13 ± 0.58 µM; GI50 (BE2-C (neuroblastoma)): 3000 ± 350 nM; GI50 [7]: 3.9 ± 0.54 µM; GI50 (A431 (skin carcinoma)): 13 ± 0.58 µM; GI50 (MCF-7 (breast carcinoma)): 6.1 ± 1.1 µM; GI50 (HT29 (colon carcinoma)): 11 ± 0.17 µM
COC1=CC(=O)C(OC)=C(c2cccc(-c3ccccc3)c2)C1=O [compound 28, 3-Biphenyl-3-yl-2,5-dimethoxycyclohexa-2,5-diene-1,4-dione]	52 ± 17%	–	12 ± 9%	–	< 10%	–	–	12 ± 5%	–	< 10%	–	18 ± 3%	12 ± 1%	172 to 174 °C	59 ± 23%	36 ± 8%	< 10%	27 ± 1%	16 ± 2%	not sufficiently active; also recorded: did not proceed to GI50 determination	cytotoxicity spectrum across the panel [4]: broad-spectrum active
COC1=CC(=O)C(OC)=C(c2cccc(OC)c2OC)C1=O [compound 22, 2,5-Dimethoxy-3-(2,3-dimethoxyphenyl)cyclohexa-2,5-diene-1,4-dione]	44 ± 8%	–	14 ± 8%	–	18 ± 2%	–	–	20 ± 2%	–	24 ± 4%	–	23 ± 10%	23 ± 9%	122 to 125 °C	75 ± 8%	31 ± 7%	35 ± 5%	16 ± 10%	15 ± 1%	not sufficiently active	–
CCCNC1=C(c2ccc3ccccc3c2)C(=O)C(NCCC)=C(c2cccc3ccccc23)C1=O [compound 43]	94 ± 1%	0.14 ± 0.1 µM	91 ± 1%	2.1 ± 1 µM	89 ± 2%	0.07 µM	0.69 µM	76 ± 1%	0.11 µM	90 ± 2%	0.1 µM	55 ± 1%	80 ± 2%	210 to 213 °C	44 ± 6%	80 ± 7%	92 ± 1%	77 ± 2%	81 ± 2%	sufficient activity	potency enhancement over parent analogue ([4]; 41 vs parent 29, 43 vs parent 33, on introduction of amine substituents): greater than or equal to 20 fold; GI50 [6]: 0.16 ± 0.1 µM; GI50 (BE2-C (neuroblastoma)): 80 nM; GI50 [7]: 3.9 ± 3.5 µM; GI50 (A431 (skin carcinoma)): 0.11 µM; GI50 (MCF-7 (breast carcinoma)): 0.17 ± 0.1 µM; GI50 (HT29 (colon carcinoma)): 0.08 µM
COC1=CC(=O)C(OC)=C(c2cc3ccccc3s2)C1=O [compound 26, 3-(Benzo[b]thiophen-2-yl)-2,5-dimethoxycyclohexa-2,5-diene-1,4-dione]	61 ± 1%	–	42 ± 5%	–	65 ± 4%	–	–	49 ± 8%	–	59 ± 2%	–	42 ± 3%	66 ± 5%	205 to 207 °C	72 ± 3%	60 ± 3%	75 ± 1%	79 ± 4%	70 ± 2%	not sufficiently active; also recorded: did not proceed to GI50 determination	–
COC1=CC(=O)C(OC)=C(c2ccccc2OC)C1=O [compound 18, 3-(2-Methoxyphenyl)-2,5-dimethoxycyclohexa-2,5-diene-1,4-diene]	33 ± 6%	–	15 ± 2%	–	15 ± 5%	–	–	22 ± 2%	–	19 ± 5%	–	17 ± 8%	14 ± 8%	162 to 164 °C	75 ± 9%	34 ± 8%	28 ± 4%	22 ± 9%	13 ± 6%	not sufficiently active	–
COC1=CC(=O)C(O)=C(C[C@@]2(C)[C@H](C)[C@@H]3CCCC(C)(C)C3=C[C@@H]2C)C1=O [compound 3, mamanuthaquinone]	–	–	–	–	–	–	–	–	–	–	–	–	–	–	–	–	–	–	–	–	GI50 [1]: 5.58 µM
COC1=CC(=O)C(OC)=C(c2ccc(-c3ccccc3)cc2)C1=O [compound 27, 3-Biphenyl-4-yl-2,5-dimethoxycyclohexa-2,5-diene-1,4-dione]	70 ± 3%	4.3 ± 0.1 µM	54 ± 5%	19 ± 2.3 µM	63 ± 1%	3.9 ± 0.1 µM	10.2 µM	48 ± 3%	19 ± 2.5 µM	70 ± 1%	4.5 ± 0.13 µM	38 ± 3%	57 ± 7%	178 to 180 °C	98 ± 4%	61 ± 6%	78 ± 1%	65 ± 2%	76 ± 2%	–	GI50 [4, 9]: 3.9 to 19 µM; GI50 (SJ-G2 (glioblastoma)): 31 ± 0.9 µM; GI50 [6]: 4.1 ± 0.1 µM; GI50 (BE2-C (neuroblastoma)): 4100 ± 100 nM; GI50 [7]: 19 ± 4.2 µM; GI50 (A431 (skin carcinoma)): 5.7 ± 0.45 µM; GI50 (MCF-7 (breast carcinoma)): 4 ± 0.1 µM; GI50 (HT29 (colon carcinoma)): 4.3 ± 0.1 µM
